Assay results published in patent publication US6716822B2, “Therapeutic agent for ischemia which inhibits apoptosis under ischemic condition” (priority 2000, dated 2004).

Key:
Sprague-Dawley rats = experiment: Effect of antibiotics on ischemic cells: rat left anterior descending artery ligature, infarct/ischemic area by Evans blue/TTC staining; format: in vivo; conditions: 45 mg/kg peritoneally, LAD ligature 2 hours
[1] = Acute toxicity test, subcutaneous injection; conditions: mouse, in vivo, sc, male C57BL/6 mice, dead mice counted through 1-7 days
Description: All antibiotics used in the present invention, except for an aminoglycoside antibiotic of geneticin, were not subject to acute toxicity tests since they have been clinically approved for their safety. In case of geneticin, after subcutaneously injecting geneticin into male C57BL/6 mice, dead mice were counted through 1-7 days.

C[C@H]1c2cccc(O)c2C(=O)C2=C(O)[C@]3(O)C(=O)C(C(N)=O)=C(O)[C@@H](N(C)C)[C@@H]3[C@@H](O)[C@@H]21 [doxycycline]
AR/LV (percentage of ischemic area per cross-sectional area of heart) (Sprague-Dawley rats): 41.8 ± 4.3%
IS/(IS + AR) (percentage of infarct area per sum of infarct and ischemic area) (Sprague-Dawley rats): 29.3 ± 4.2%
IS/LV (percentage of infarct area per cross-sectional area of heart) (Sprague-Dawley rats): 16.9 ± 2.5%

CN[C@@H]1[C@@H](O)[C@@H](O[C@@H]2[C@@H](O)[C@H](O[C@H]3O[C@H]([C@@H](C)O)[C@@H](O)[C@H](O)[C@H]3N)[C@@H](N)C[C@H]2N)OC[C@]1(C)O [geneticin]
AR/LV (percentage of ischemic area per cross-sectional area of heart) (Sprague-Dawley rats): 40.0 ± 4.1%
IS/(IS + AR) (percentage of infarct area per sum of infarct and ischemic area) (Sprague-Dawley rats): 24.6 ± 2.1%
IS/LV (percentage of infarct area per cross-sectional area of heart) (Sprague-Dawley rats): 12.5 ± 1.8%
LD50 [1]: ~3800 mg/kg
